Data taken from PMC6001238, “Iterative Chemical Engineering of Vancomycin Leads to Novel Vancomycin Analogs With a High in Vitro Therapeutic Index” (Frontiers in Microbiology, 2018).
Values after ≈ are worked out from the molar mass of the structure shown.

Assays:
MRSA KS89 = assay: MIC, broth microdilution, MRSA KS89; format: cell-based, Staphylococcus aureus; settings: for MIC-fold improvement vs. vancomycin: MRSA KS8, ratio of MIC of vancomycin and MIC of analogue; for MIC: Staphylococcus aureus MRSA KS8, read-out: MIC
Summary of the method: (§1)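 Susceptibility was scored by broth microdilution (CLSI). In one instance each vancomycin analog or control antibiotic was tested in the presence of vancomycin, 10 μM final, and ultrapure water plus non-inoculated broth were included as controls.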

MRSA KS2 = assay: MIC, broth microdilution, MRSA KS2; format: cell-based, Staphylococcus aureus; settings: for MIC-fold improvement vs. vancomycin: MRSA KS2, ratio of MIC of vancomycin and MIC of analogue; for MIC: Staphylococcus aureus MRSA KS2, read-out: MIC
Summary of the method: as §1

MRSA KS6 = assay: MIC, broth microdilution, MRSA KS6; format: cell-based, Staphylococcus aureus; settings: for MIC-fold improvement vs. vancomycin: MRSA KS6, ratio of MIC of vancomycin and MIC of analogue; for MIC: Staphylococcus aureus MRSA KS6, read-out: MIC
Summary of the method: as §1

[1] = test system: human cervix carcinoma (HeLa) cells; assay: Cytostatic activity, HeLa cell proliferation; format: cell-based; settings: mean ± SD of three experiments; highest concentration tested 250 µM; 4 days; read-out: Toxicity (IC50) HeLa
Summary of the method: (§2)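 Readout: Coulter cell number after drug exposure at 37°C. Durations differ by line (L1210 2 days; CEM 3 days; HeLa 4 days). Stock suspension 300,000–500,000 cells/mL, diluted by mixing with compound. Endpoint: IC50 vs negative control.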

[2] = test system: L1210, CEM and HeLa cell lines; assay: Cytostatic activity, average or summary over L1210, CEM and HeLa; format: cell-based; settings: average of L1210, CEM and HeLa; read-out: Toxicity (IC50) Average
Summary of the method: as §2

S. aureus VRSA = assay: MIC, broth microdilution, vancomycin-resistant S. aureus (VRSA); format: cell-based, Staphylococcus aureus; settings: for MIC: Staphylococcus aureus VRSA, read-out: MIC; for MIC-fold improvement vs. vancomycin: VRSA, ratio of MIC of vancomycin and MIC of analogue
Summary of the method: as §1

E. faecalis VRE 37 = assay: MIC, broth microdilution, vancomycin-resistant E. faecalis VRE 37 (VanA); format: cell-based, Enterococcus faecalis; settings: for MIC: Enterococcus faecalis VRE 37 (vancomycin-resistant), read-out: MIC; for MIC-fold improvement vs. vancomycin: VRE 37, ratio of MIC of vancomycin and MIC of analogue
Summary of the method: as §1

E. faecalis VRE 6 = assay: MIC, broth microdilution, vancomycin-resistant E. faecalis VRE 6 (VanA); format: cell-based, Enterococcus faecalis; settings: for MIC: Enterococcus faecalis VRE 6 (vancomycin-resistant), read-out: MIC; for MIC-fold improvement vs. vancomycin: VRE 6, ratio of MIC of vancomycin and MIC of analogue
Summary of the method: as §1

E. faecalis VRE 53 = assay: MIC, broth microdilution, vancomycin-resistant E. faecalis VRE 53 (VanA); format: cell-based, Enterococcus faecalis; settings: for MIC: Enterococcus faecalis VRE 53 (vancomycin-resistant), read-out: MIC; for MIC-fold improvement vs. vancomycin: VRE 53, ratio of MIC of vancomycin and MIC of analogue
Summary of the method: as §1

E. faecalis VRE 29 = assay: MIC, broth microdilution, vancomycin-resistant E. faecalis VRE 29 (VanA); format: cell-based, Enterococcus faecalis; settings: for MIC: Enterococcus faecalis VRE 29 (vancomycin-resistant), read-out: MIC; for MIC-fold improvement vs. vancomycin: VRE 29, ratio of MIC of vancomycin and MIC of analogue
Summary of the method: as §1

[3] = test system: S. aureus VSSA (ATCC 6538); assay: MIC, broth microdilution, vancomycin-sensitive S. aureus (VSSA/MSSA, ATCC 6538); format: cell-based, Staphylococcus aureus; settings: for MIC: Staphylococcus aureus VSSA, read-out: MIC; for MIC-fold improvement vs. vancomycin: VSSA, ratio of MIC of vancomycin and MIC of analogue
Summary of the method: as §1

MRSA KS1 = assay: MIC, broth microdilution, MRSA KS1; format: cell-based, Staphylococcus aureus; settings: for MIC-fold improvement vs. vancomycin: MRSA KS1, ratio of MIC of vancomycin and MIC of analogue; for MIC: Staphylococcus aureus MRSA KS1, read-out: MIC
Summary of the method: as §1

[4] = test system: Murine leukemia (L1210) cells; assay: Cytostatic activity, L1210 cell proliferation; format: cell-based; settings: mean ± SD of three experiments; highest concentration tested 250 µM; 2 days; read-out: Toxicity (IC50) L1210
Summary of the method: as §2

[5] = test system: human T-lymphocyte (CEM) cells; assay: Cytostatic activity, CEM cell proliferation; format: cell-based; settings: mean ± SD of three experiments; highest concentration tested 250 µM; 3 days; read-out: Toxicity (IC50) CEM
Summary of the method: as §2

E. faecalis VSE 1 = assay: MIC, broth microdilution, vancomycin-sensitive E. faecalis (VSE 1); format: cell-based, Enterococcus faecalis; settings: for MIC: Enterococcus faecalis VSE 1 (vancomycin-sensitive), read-out: MIC; for MIC-fold improvement vs. vancomycin: VSE 1, ratio of MIC of vancomycin and MIC of analogue
Summary of the method: as §1

S. aureus VISA/HIP5827 = assay: MIC, broth microdilution, vancomycin-intermediate S. aureus VISA HIP5827; format: cell-based, Staphylococcus aureus; settings: for MIC: Staphylococcus aureus VISA/HIP5827, read-out: MIC; for MIC-fold improvement vs. vancomycin: VISA/HIP5827, ratio of MIC of vancomycin and MIC of analogue
Summary of the method: as §1

Row | MIC-fold improvement vs. vancomycin (MRSA KS89) | MIC (MRSA KS89) [µM] | MIC-fold improvement vs. vancomycin (MRSA KS2) | MIC (MRSA KS2) [µM] | MIC-fold improvement vs. vancomycin (MRSA KS6) | MIC (MRSA KS6) [µM] | MIC (S. aureus VRSA) [µM] | MIC-fold improvement vs. vancomycin (S. aureus VRSA) | MIC (E. faecalis VRE 37) [µM] | MIC-fold improvement vs. vancomycin (E. faecalis VRE 37) | MIC (E. faecalis VRE 6) [µM] | MIC-fold improvement vs. vancomycin (E. faecalis VRE 6) | MIC (E. faecalis VRE 53) [µM] | MIC-fold improvement vs. vancomycin (E. faecalis VRE 53) | MIC (E. faecalis VRE 29) [µM] | MIC-fold improvement vs. vancomycin (E. faecalis VRE 29) | MIC [3] [µM] | MIC-fold improvement vs. vancomycin [3] | Compound | IC50 [1] [µM] | IC50 [2] [µM] | also measured
1 | 4 | 0.20 (≈ 0.337 µg/mL) | 8 | 0.10 (≈ 0.169 µg/mL) | 2 | 0.39 (≈ 0.657 µg/mL) | 0.78 (≈ 1.31 µg/mL) | 128 | 3.13 (≈ 5.28 µg/mL) | 128 | 1.56 (≈ 2.63 µg/mL) | 128 | 12.5 (≈ 21.1 µg/mL) | 32 | 1.56 (≈ 2.63 µg/mL) | 256 | 0.39 (≈ 0.657 µg/mL) | 2 | CNC(CC(C)C)C(=O)NC1C(=O)NC(CC(N)=O)C(=O)NC2C(=O)NC3C(=O)NC(C(=O)NC(C(=O)NCC(=O)Nc4ccc(C(=O)c5ccccc5)cc4)c4cc(O)cc(O)c4-c4cc3ccc4O)C(O)c3ccc(c(Cl)c3)Oc3cc2cc(c3OC2OC(CO)C(O)C(O)C2OC2CC(C)(N)C(O)C(C)O2)Oc2ccc(cc2Cl)C1O (centres unmarked) [Vanc-88] | 98 ± 23 | 86 | MIC-fold improvement vs. vancomycin (MRSA KS1): 8; MIC (MRSA KS1): 0.10 µM (≈ 0.169 µg/mL); IC50 [4]: 127 ± 32 µM; IC50 [5]: 32 ± 1 µM; MIC (E. faecalis VSE 1): ≤0.05 µM; MIC-fold improvement vs. vancomycin (E. faecalis VSE 1): ≥32; MIC (S. aureus VISA/HIP5827): 0.39 µM (≈ 0.657 µg/mL); MIC-fold improvement vs. vancomycin (S. aureus VISA/HIP5827): 16
2 | 2 | 0.39 (≈ 0.657 µg/mL) | 2 | 0.39 (≈ 0.657 µg/mL) | 0.25 | 3.13 (≈ 5.27 µg/mL) | 6.25 (≈ 10.5 µg/mL) | 16 | 25 (≈ 42.1 µg/mL) | 16 | 6.25 (≈ 10.5 µg/mL) | 32 | 25 (≈ 42.1 µg/mL) | 16 | 25 (≈ 42.1 µg/mL) | 16 | 0.78 (≈ 1.31 µg/mL) | 1 | CNC(CC(C)C)C(=O)NC1C(=O)NC(CC(N)=O)C(=O)NC2C(=O)NC3C(=O)NC(C(=O)NC(C(=O)NCCNC(=O)C4c5ccccc5-c5ccccc54)c4cc(O)cc(O)c4-c4cc3ccc4O)C(O)c3ccc(c(Cl)c3)Oc3cc2cc(c3OC2OC(CO)C(O)C(O)C2OC2CC(C)(N)C(O)C(C)O2)Oc2ccc(cc2Cl)C1O (centres unmarked) [Vanc-46] | 108 ± 9 | 180 | MIC-fold improvement vs. vancomycin (MRSA KS1): 1; MIC (MRSA KS1): 0.78 µM (≈ 1.31 µg/mL); IC50 [4]: 197 ± 18 µM; IC50 [5]: 235 ± 21 µM; MIC (E. faecalis VSE 1): 0.78 µM (≈ 1.31 µg/mL); MIC-fold improvement vs. vancomycin (E. faecalis VSE 1): 2; MIC (S. aureus VISA/HIP5827): 1.56 µM (≈ 2.63 µg/mL); MIC-fold improvement vs. vancomycin (S. aureus VISA/HIP5827): 4
